Measured values from patent publication US8802597B2, “Herbicidal pyrimidines” (E I du Pont de Nemours and Company, priority 2003, dated 2014).
Where two headings read alike, the source gives them in different places.

Assays:
Assay in all cases: Test C pre/postemergence
Format in all cases: in vivo
[1] = tested on: cocklebur (Xanthium strumarium); settings: for Plant response rating, Cocklebur: Preemergence
In short: (§1)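 We sprayed seeded pots preemergence and 2–18 cm seedlings postemergence with test chemicals in a non-phytotoxic solvent mixture including surfactant. Greenhouse plants were visually compared with untreated controls at 12 to 14 days and scored 0 (no effect) to 100 (complete control).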

[2] = tested on: common (oilseed) sunflower (Helianthus annuus); settings: Preemergence, scale 0 to 100, 0 no effect, 100 complete control
In short: as §1

[3] = tested on: common ragweed (Ambrosia elatior); settings: for Plant response rating, Ragweed: Preemergence, scale 0 to 100, 0 no effect, 100 complete control
In short: as §1

[4] = tested on: crabgrass (Digitaria sanguinalis); settings: for pest or weed control at 16 g/ha: 16 g ai/ha
In short: as §1

[5] = tested on: eastern black nightshade (Solanum ptycanthum); settings: Preemergence, scale 0 to 100, 0 no effect, 100 complete control
In short: as §1

[6] = tested on: giant foxtail (Setaria faberii); settings: for pest or weed control at 16 g/ha: 16 g ai/ha
In short: as §1

kochia (Kochia scoparia) = settings: for pest or weed control at 31 g/ha: 31 g ai/ha
In short: as §1

[7] = tested on: morningglory (Ipomoea coccinea); settings: for Plant response rating, Morningglory: Preemergence
In short: as §1

[8] = tested on: pigweed (Amaranthus retroflexus); settings: for pest or weed control at 16 g/ha: 16 g ai/ha
In short: as §1

[9] = tested on: velvetleaf (Abutilon theophrasti); settings: for Plant response rating, Velvetleaf: Preemergence, scale 0 to 100, 0 no effect, 100 complete control
In short: as §1

[10] = tested on: woolly cupgrass (Eriochloa villosa); settings: for pest or weed control at 16 g/ha: 16 g ai/ha
In short: as §1

[11] = tested on: yellow nutsedge (Cyperus esculentus); settings: for pest or weed control at 16 g/ha: 16 g ai/ha
In short: as §1

[12] = 16 g ai/ha, scale 0 to 100, 0 no effect, 100 complete control
[13] = 31 g ai/ha, scale 0 to 100, 0 no effect, 100 complete control
[14] = 62 g ai/ha, scale 0 to 100, 0 no effect, 100 complete control
[15] = Preemergence, 31 g ai/ha, scale 0 to 100, 0 no effect, 100 complete control
[16] = Preemergence, 62 g ai/ha, scale 0 to 100, 0 no effect, 100 complete control
[17] = Preemergence, 125 g ai/ha, scale 0 to 100

## Nc1nc(C2CC2)nc(C(=O)O)c1Cl [Compound 135, 6-amino-5-chloro-2-cyclopropyl-4-pyrimidinecarboxylic acid]
[1]; [12]
  Plant response rating, Cocklebur: 85
[1]; [13]
  Plant response rating, Cocklebur: 95
[1]; [14]
  Plant response rating, Cocklebur: 95
[1]; 125 g ai/ha, scale 0 to 100
  Plant response rating, Cocklebur: 100
[1]; Xanthium strumarium, post-emergence, Postemergence, 16 g ai/ha, read-out: Plant response rating (scale of 0 to 100), Cocklebur
  pest or weed control at 16 g/ha: 90%
[1]; Xanthium strumarium, post-emergence, Postemergence, 31 g ai/ha, read-out: Plant response rating (scale of 0 to 100), Cocklebur
  pest or weed control at 31 g/ha: 100%
[1]; Xanthium strumarium, post-emergence, Postemergence, 125 g ai/ha, scale 0 to 100 (0 no effect, 100 complete control), read-out: Cocklebur plant response rating
  pest or weed control at 125 g/ha: 100%
[2]; 16 g ai/ha
  Plant response rating, Sunflower: 65
[2]; 31 g ai/ha
  Plant response rating, Sunflower: 70
[2]; 62 g ai/ha
  Plant response rating, Sunflower: 90
[3]; Ambrosia artemisiifolia, post-emergence, Postemergence, 16 g ai/ha, read-out: Plant response rating (scale of 0 to 100), Ragweed
  pest or weed control at 16 g/ha: 75%
[3]; Ambrosia artemisiifolia, post-emergence, Postemergence, 31 g ai/ha, read-out: Plant response rating (scale of 0 to 100), Ragweed
  pest or weed control at 31 g/ha: 80%
[3]; Ambrosia artemisiifolia, post-emergence, Postemergence, 62 g ai/ha, read-out: Plant response rating (scale of 0 to 100), Ragweed
  pest or weed control at 62 g/ha: 85%
[3]; Ambrosia artemisiifolia, post-emergence, Postemergence, 125 g ai/ha, scale 0 to 100 (0 no effect, 100 complete control), read-out: Ragweed plant response rating
  pest or weed control at 125 g/ha: 95%
[3]; 16 g ai/ha
  Plant response rating, Ragweed: 5
[3]; 62 g ai/ha
  Plant response rating, Ragweed: 35
[3]
  Plant response rating, Ragweed: 70
[4]; Digitaria sanguinalis, post-emergence, Postemergence, read-out: Plant response rating (scale of 0 to 100), Crabgrass
  pest or weed control at 16 g/ha: 65%
[4]; Digitaria sanguinalis, post-emergence, Postemergence, 31 g ai/ha, read-out: Plant response rating (scale of 0 to 100), Crabgrass
  pest or weed control at 31 g/ha: 75%
[4]; Digitaria sanguinalis, post-emergence, Postemergence, 62 g ai/ha, read-out: Plant response rating (scale of 0 to 100), Crabgrass
  pest or weed control at 62 g/ha: 75%
[4]; Digitaria sanguinalis, post-emergence, Postemergence, 125 g ai/ha, scale 0 to 100 (0 no effect, 100 complete control), read-out: Crabgrass plant response rating
  pest or weed control at 125 g/ha: 75%
[4]; Digitaria sanguinalis, pre-emergence, Preemergence, scale 0 to 100, 0 no effect, 100 complete control, read-out: Plant response rating, Crabgrass
  pest or weed control at 16 g/ha: 0%
[4]; [15]
  Plant response rating, Crabgrass: 0
[4]; [16]
  Plant response rating, Crabgrass: 0
[4]; [17]
  Plant response rating, Crabgrass: 5
[5]; 31 g ai/ha
  Plant response rating, Nightshade: 30
[5]; 62 g ai/ha
  Plant response rating, Nightshade: 35
[5]
  Plant response rating, Nightshade: 50
[5]; Solanum, pre-emergence, 16 g ai/ha, read-out: Plant response rating, Nightshade
  pest or weed control at 16 g/ha: 0%
[6]; [15]
  Plant response rating, Foxtail, Giant: 0
[6]; [16]
  Plant response rating, Foxtail, Giant: 0
[6]; [17]
  Plant response rating, Foxtail, Giant: 0
[6]; Setaria faberi, post-emergence, Postemergence, 125 g ai/ha, scale 0 to 100 (0 no effect, 100 complete control), read-out: Foxtail, Giant plant response rating
  pest or weed control at 125 g/ha: 75%
[6]; Setaria faberi, post-emergence, Postemergence, read-out: Plant response rating (scale of 0 to 100), Foxtail, Giant
  pest or weed control at 16 g/ha: 10%
[6]; Setaria faberi, post-emergence, Postemergence, 31 g ai/ha, read-out: Plant response rating (scale of 0 to 100), Foxtail, Giant
  pest or weed control at 31 g/ha: 60%
[6]; Setaria faberi, post-emergence, Postemergence, 62 g ai/ha, read-out: Plant response rating (scale of 0 to 100), Foxtail, Giant
  pest or weed control at 62 g/ha: 65%
[6]; Setaria faberi, pre-emergence, Preemergence, scale 0 to 100, 0 no effect, 100 complete control, read-out: Plant response rating, Foxtail, Giant
  pest or weed control at 16 g/ha: 0%
Kochia (Kochia scoparia); Bassia scoparia, post-emergence, Postemergence, 16 g ai/ha, read-out: Plant response rating (scale of 0 to 100), Kochia
  pest or weed control at 16 g/ha: 75%
Kochia (Kochia scoparia); Bassia scoparia, post-emergence, Postemergence, read-out: Plant response rating (scale of 0 to 100), Kochia
  pest or weed control at 31 g/ha: 90%
Kochia (Kochia scoparia); Bassia scoparia, post-emergence, Postemergence, 62 g ai/ha, read-out: Plant response rating (scale of 0 to 100), Kochia
  pest or weed control at 62 g/ha: 90%
Kochia (Kochia scoparia); Bassia scoparia, post-emergence, Postemergence, 125 g ai/ha, scale 0 to 100 (0 no effect, 100 complete control), read-out: Kochia plant response rating
  pest or weed control at 125 g/ha: 95%
Kochia (Kochia scoparia); Bassia scoparia, pre-emergence, Preemergence, scale 0 to 100, 0 no effect, 100 complete control, read-out: Plant response rating, Kochia
  pest or weed control at 31 g/ha: 75%
Kochia (Kochia scoparia); Preemergence, 16 g ai/ha, scale 0 to 100, 0 no effect, 100 complete control
  Plant response rating, Kochia: 60
Kochia (Kochia scoparia); [16]
  Plant response rating, Kochia: 75
Kochia (Kochia scoparia); [17]
  Plant response rating, Kochia: 100
[7]; Ipomoea, post-emergence, Postemergence, 16 g ai/ha, read-out: Plant response rating (scale of 0 to 100), Morningglory
  pest or weed control at 16 g/ha: 80%
[7]; Ipomoea, post-emergence, Postemergence, 31 g ai/ha, read-out: Plant response rating (scale of 0 to 100), Morningglory
  pest or weed control at 31 g/ha: 90%
[7]; Ipomoea, post-emergence, Postemergence, 62 g ai/ha, read-out: Plant response rating (scale of 0 to 100), Morningglory
  pest or weed control at 62 g/ha: 95%
[7]; Ipomoea, post-emergence, Postemergence, 125 g ai/ha, scale 0 to 100 (0 no effect, 100 complete control), read-out: Morningglory plant response rating
  pest or weed control at 125 g/ha: 95%
[7]; [12]
  Plant response rating, Morningglory: 85
[7]; [13]
  Plant response rating, Morningglory: 90
[7]; [14]
  Plant response rating, Morningglory: 90
[7]; 125 g ai/ha, scale 0 to 100
  Plant response rating, Morningglory: 100
[8]; Amaranthus retroflexus, post-emergence, Postemergence, read-out: Plant response rating (scale of 0 to 100), Pigweed
  pest or weed control at 16 g/ha: 85%
[8]; Amaranthus retroflexus, post-emergence, Postemergence, 31 g ai/ha, read-out: Plant response rating (scale of 0 to 100), Pigweed
  pest or weed control at 31 g/ha: 95%
[8]; Amaranthus retroflexus, post-emergence, Postemergence, 62 g ai/ha, read-out: Plant response rating (scale of 0 to 100), Pigweed
  pest or weed control at 62 g/ha: 100%
[8]; Amaranthus retroflexus, post-emergence, Postemergence, 125 g ai/ha, scale 0 to 100 (0 no effect, 100 complete control), read-out: Pigweed plant response rating
  pest or weed control at 125 g/ha: 100%
[8]; Amaranthus retroflexus, pre-emergence, Preemergence, scale 0 to 100, 0 no effect, 100 complete control, read-out: Plant response rating, Pigweed
  pest or weed control at 16 g/ha: 70%
[8]; [15]
  Plant response rating, Pigweed: 70
[8]; [16]
  Plant response rating, Pigweed: 80
[9]; Abutilon theophrasti, post-emergence, Postemergence, 16 g ai/ha, read-out: Plant response rating (scale of 0 to 100), Velvetleaf
  pest or weed control at 16 g/ha: 55%
[9]; Abutilon theophrasti, post-emergence, Postemergence, 31 g ai/ha, read-out: Plant response rating (scale of 0 to 100), Velvetleaf
  pest or weed control at 31 g/ha: 90%
[9]; Abutilon theophrasti, post-emergence, Postemergence, 125 g ai/ha, scale 0 to 100 (0 no effect, 100 complete control), read-out: Velvetleaf plant response rating
  pest or weed control at 125 g/ha: 95%
[9]; 16 g ai/ha
  Plant response rating, Velvetleaf: 60
[9]; 31 g ai/ha
  Plant response rating, Velvetleaf: 85
[9]; 62 g ai/ha
  Plant response rating, Velvetleaf: 90
[10]; Eriochloa villosa, post-emergence, Postemergence, read-out: Plant response rating (scale of 0 to 100), Cupgrass, Woolly
  pest or weed control at 16 g/ha: 30%
[10]; Eriochloa villosa, post-emergence, Postemergence, 31 g ai/ha, read-out: Plant response rating (scale of 0 to 100), Cupgrass, Woolly
  pest or weed control at 31 g/ha: 60%
[10]; Eriochloa villosa, post-emergence, Postemergence, 62 g ai/ha, read-out: Plant response rating (scale of 0 to 100), Cupgrass, Woolly
  pest or weed control at 62 g/ha: 60%
[10]; Eriochloa villosa, post-emergence, Postemergence, 125 g ai/ha, scale 0 to 100 (0 no effect, 100 complete control), read-out: Cupgrass, Woolly plant response rating
  pest or weed control at 125 g/ha: 80%
[10]; Eriochloa villosa, pre-emergence, Preemergence, scale 0 to 100, 0 no effect, 100 complete control, read-out: Plant response rating, Cupgrass, Woolly
  pest or weed control at 16 g/ha: 0%
[10]; [15]
  Plant response rating, Cupgrass, Woolly: 0
[10]; [16]
  Plant response rating, Cupgrass, Woolly: 0
[10]; [17]
  Plant response rating, Cupgrass, Woolly: 0
[11]; Cyperus, post-emergence, Postemergence, read-out: Plant response rating (scale of 0 to 100), Nutsedge, Yellow
  pest or weed control at 16 g/ha: 0%
[11]; Cyperus, post-emergence, Postemergence, 31 g ai/ha, read-out: Plant response rating (scale of 0 to 100), Nutsedge, Yellow
  pest or weed control at 31 g/ha: 0%
[11]; Cyperus, post-emergence, Postemergence, 62 g ai/ha, read-out: Plant response rating (scale of 0 to 100), Nutsedge, Yellow
  pest or weed control at 62 g/ha: 15%
[11]; Cyperus, post-emergence, Postemergence, 125 g ai/ha, scale 0 to 100 (0 no effect, 100 complete control), read-out: Nutsedge, Yellow plant response rating
  pest or weed control at 125 g/ha: 40%
[11]; Cyperus, pre-emergence, Preemergence, scale 0 to 100, 0 no effect, 100 complete control, read-out: Plant response rating, Nutsedge, Yellow
  pest or weed control at 16 g/ha: 0%
[11]; [15]
  Plant response rating, Nutsedge, Yellow: 0
[11]; [16]
  Plant response rating, Nutsedge, Yellow: 0
